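Values below derive from 48-hour exposures of cells grown in 96-well plates, with endpoints linearly interpolated between the two concentrations bracketing the appropriate inhibition level. Definition used: TGI = concentration required for complete inhibition of growth.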 Where a SMILES comes first, the peptide text is derived from it. Bridges are numbered along the chain shown (N, C = ends). The star is where a group is joined. Cbz = O=C(OCc1ccccc1)*
Key:
Assay in all cases: NCI anticancer screen, dose series, 48 h
HOP-92 NSCLC = tested on: HOP-92 NSCLC
SF-539 CNS = tested on: SF-539 CNS
HCT-116 colon = tested on: HCT-116 colon
OVCAR-5 ovarian = tested on: OVCAR-5 ovarian
A549 NSCLC = tested on: A549 NSCLC
COLO 205 colon = tested on: COLO 205 colon
MCF7 breast = tested on: MCF7 breast
RPMI-8226 leukemia = tested on: RPMI-8226 leukemia
MDA-N = tested on: MDA-N
SK-MEL-5 melanoma = tested on: SK-MEL-5 melanoma
CAKI-1 renal = tested on: CAKI-1 renal
NCI/ADR-RES ovarian = tested on: NCI/ADR-RES ovarian
A498 renal = tested on: A498 renal
MOLT-4 leukemia = tested on: MOLT-4 leukemia
SF-268 CNS = tested on: SF-268 CNS
OVCAR-8 ovarian = tested on: OVCAR-8 ovarian
RXF 393 renal = tested on: RXF 393 renal

Structure (SMILES) | TGI (HOP-92 NSCLC) [µM] | TGI (SF-539 CNS) [µM] | TGI (HCT-116 colon) [µM] | TGI (OVCAR-5 ovarian) [µM] | TGI (A549 NSCLC) [µM] | TGI (COLO 205 colon) [µM] | TGI (MCF7 breast) [µM] | TGI (RPMI-8226 leukemia) [µM] | TGI (MDA-N) [µM] | TGI (SK-MEL-5 melanoma) [µM] | TGI (CAKI-1 renal) [µM] | TGI (NCI/ADR-RES ovarian) [µM] | TGI (A498 renal) [µM] | TGI (MOLT-4 leukemia) [µM] | TGI (SF-268 CNS) [µM] | TGI (OVCAR-8 ovarian) [µM] | TGI (RXF 393 renal) [µM]
NS(=O)(=O)c1ccc(NC(=S)NC(=O)Nc2ccc(Cl)c(Cl)c2)cc1 | 48.6 | 39.7 | 27.7 | 27.9 | 31.7 | 32.3 | 30.2 | > 85.3 | 29.6 | 31.1 | 40.1 | 44.6 | 7.51 | 49.6 | 32.3 | 41.2 | 35.4
CC(=O)N1C=Cc2c(c(C)c3c([nH]c4ccccc43)c2C)C1 | 20.8 | 18.8 | 3.21 | 24 | 24.2 | 19.1 | 18.5 | 50.6 | 27.6 | 33.5 | 25.4 | 8.41 | 28.3 | > 100 | 32.6 | 29.1 | 37.4
C#CCOC(=O)C(N)CC(N)=O (configuration not stated) | > 100 | > 100 | > 100 | > 100 | > 100 | > 100 | > 100 | > 100 | > 100 | > 100 | > 100 | > 100 | > 100 | > 100 | > 100 | > 100 | > 100
COc1cc2nc3n(c2cc1OC)C(O)c1c(Cl)nc(SC)nc1S3 (configuration not stated) | 68.3 | 5.22 | 10.3 | > 95.1 | 48 | 22.9 | 15 | > 37 | 24 | 8.94 | > 45.4 | 18.7 | 34.9 | > 48.9 | > 100 | 7.06 | 14.8
COC(=O)c1c(O)c(C#N)c2[nH]c3ccccc3n2c1=O | > 100 | > 100 | > 100 | > 100 | > 100 | > 100 | > 100 | > 100 | > 100 | > 100 | > 100 | > 100 | > 100 | > 100 | > 100 | > 100 | > 100
CC(=O)c1ccc(Br)cc1NC1=CC(=O)c2ncccc2C1=O | 26 | 6.96 | 4.5 | 33.8 | 10.6 | 11.4 | 11.6 | 8.95 | 3.62 | 1.3 | 22.3 | 14.9 | 5.85 | 9.6 | 21.7 | 18.2 | 18.7
CCCc1nnc2sc(COc3ccc(OCc4nn5c(CCC)nnc5s4)c(Cl)c3)nn12 | 80.6 | > 100 | > 100 | > 100 | > 100 | > 100 | 55.3 | > 100 | 45.4 | 21.2 | 60 | > 100 | 74.5 | > 100 | > 100 | > 100 | > 100
C=CCN1C(=O)CC2[C@@H]3CCc4cc(O)ccc4C3CC[C@]2(C)C1=O (some centres not stated) | > 10 | > 10 | > 10 | > 10 | > 10 | > 10 | > 10 | > 10 | > 10 | > 10 | > 10 | > 10 | > 10 | > 10 | > 10 | > 10 | > 10
COC1=C(C(c2cc(OC)c(OC)c(OC)c2)c2cc3c(cc2OC)OCO3)C(=O)OC1 (configuration not stated) | > 100 | 41.2 | 33.5 | > 100 | > 67.1 | 53.2 | > 82.3 | > 100 | 17.1 | > 62.6 | > 100 | 26.2 | > 71.9 | > 100 | > 79.8 | 73.9 | 43.6
CC1=C(O)C(=O)C=C2C1=CC=C1[C@@]2(C)CC[C@@]2(C)C3C[C@@H](C)C(=O)[C@@H](O)[C@]3(C)CC[C@]12C (some centres not stated) | 3.87 | 4.33 | 3.21 | 9.29 | 28.5 | 3.05 | 11 | 5.08 | 3.3 | 12.7 | 2.83 | 9.55 | 12.4 | 3.21 | 11 | 5.47 | 3.49
O=C(CCC(=O)c1ccsc1)c1ccsc1 | > 100 | > 100 | > 100 | > 100 | > 100 | > 100 | > 100 | > 100 | > 100 | > 100 | > 100 | > 100 | > 100 | > 100 | > 100 | > 100 | > 100
O=C1c2ccccc2-c2nnc3c(c21)Cc1ccccc1C3 | > 10 | > 10 | > 10 | > 10 | > 10 | > 10 | > 10 | > 10 | > 10 | > 10 | > 10 | > 10 | > 10 | > 10 | > 10 | > 10 | > 10
O=C1Cc2c(-c3cccs3)cc(-c3ccccc3)nc2-c2ccccc2N1 | > 100 | > 100 | > 100 | > 100 | > 100 | > 100 | > 100 | > 100 | > 100 | > 100 | > 100 | > 100 | > 100 | > 100 | 56.8 | 17.1 | > 100
CN1CCN(c2cc3[nH]c4cc(O)cc(O)c4c(=O)c3cc2N)CC1 | 44 | 17.4 | > 100 | > 100 | > 100 | 32 | 45.8 | 49.2 | 69 | 50.1 | 87 | > 100 | 73.2 | 4.58 | 52.5 | > 100 | 49
COc1cccc(OC)c1C1ON=C(c2ccccc2)N1C12CC3CC(CC(C3)C1)C2 (configuration not stated) | 88.4 | > 100 | > 100 | > 100 | > 100 | > 100 | > 100 | > 100 | > 100 | > 100 | > 100 | > 100 | > 100 | > 100 | > 100 | > 100 | 11.9
COc1cc(CN=c2nc(N(C)C)ss2)cc(OC)c1OC | > 10 | > 10 | > 10 | > 10 | > 10 | > 10 | > 10 | > 7.37 | > 10 | > 10 | > 10 | > 10 | > 10 | 7.18 | > 10 | > 8.92 | > 10
CN(C)c1cccc(-c2cc(=S)c3cc4c(cc3[nH]2)OCO4)c1 | > 100 | > 100 | > 100 | > 100 | > 100 | > 100 | > 100 | > 100 | 11.8 | > 100 | > 100 | > 100 | > 100 | > 93 | > 100 | > 100 | 43.3
CNC(=O)C1CCCCNC(=O)CCC(NC(=O)OCc2ccccc2)C(=O)N1 (stereo not drawn) (Cbz-Glu-Lys-NHMe; lactam 1-2; configuration not given here) | > 100 | > 100 | > 100 | > 100 | > 100 | > 100 | > 100 | > 100 | > 100 | > 100 | > 100 | > 100 | > 100 | > 100 | > 100 | > 100 | > 100
CC(C)(C)C(=O)/C=C(\OB(F)F)C(C)(C)C | > 100 | > 100 | > 100 | > 100 | > 100 | > 100 | > 100 | > 100 | > 100 | > 100 | > 100 | > 100 | > 100 | > 100 | > 100 | > 100 | > 100
CC(C)=CCC[C@@H](C)[C@H]1CC[C@@]2(C)[C@@H]3CC[C@H]4C(C)(C)[C@@H](O)CC[C@@]45C[C@@]35CC[C@]12C | 44.2 | > 70.9 | > 77.9 | > 100 | 48.1 | > 100 | > 100 | > 88.7 | > 100 | > 64.4 | > 100 | 62.1 | > 94.3 | > 87.2 | > 76.4 | 42.6 | 45.1
CC(C)(C)N(Cc1ccccc1)C(=O)/C=C\S(=O)c1ccccc1 (configuration not stated) | 10.8 | 9.67 | 7.05 | 28.8 | 25.4 | 12.8 | 16.4 | 7.78 | 8.64 | 15.9 | 18.4 | 13.7 | 26.5 | 7.39 | 6.96 | 4.16 | 13.8

— PubChem BioAssay (NCI)
